# Values of other authors as cited in patent US6387915B2, “Isoxazole-sulfonamide endothelin antagonists” (Pfizer Inc., priority 2000, dated 2002).
# Legend:
# [1] = hypertensive patients; H. Krum et al., New Eng. J. Med. (1998) 338, 784-790
# [2] = in man; Hypertension (1999) 33, 581-585
# neointimal formation = conditions: S. Douglas et al., Circ. Res, 75, 1994
compound,measurement,setting,value
COc1ccccc1Oc1c(NS(=O)(=O)c2ccc(C(C)(C)C)cc2)nc(-c2ncccn2)nc1OCCO [Bosentan],effect on blood pressure,[1],decreased blood pressure
CCCC[C@@H](NC(=O)[C@@H](Cc1cn(C(=O)OC)c2ccccc12)NC(=O)[C@H](CC(C)(C)C)NC(=O)N1[C@H](C)CCC[C@@H]1C)C(=O)O [BQ-788],effect on peripheral resistance,[2],increase peripheral resistance
CCCOc1ccc2c(c1)[C@@H](c1ccc(OC)cc1OCC(=O)O)[C@H](C(=O)O)[C@H]2c1ccc2c(c1)OCO2 [SB-209670],reduction in neointimal formation relative to control animals,neointimal formation,50%
